Source: patent EP0823908B1, “PYRIDO[2,3-d]PYRIMIDINES FOR INHIBITING PROTEIN TYROSINE KINASE MEDIATED [sequence] PROLIFERATION” (Warner-Lambert Company LLC, priority 1995, dated 1996)
Like-named read-outs stand apart in the source and are kept apart here.

Columns and labels:
Type in all cases: biochemical
[1] = molecular target: T1, human FGF-1 (flg) receptor tyrosine kinase (Homo sapiens, UniProt P11362); experiment: FGF receptor tyrosine kinase assay (32P incorporation into glutamate-tyrosine co-polymer); settings: for inhibition at 50 µM: read-out: FGFr-TK % Inhibition at 50 µM
T1 construct: amplify a fragment of DNA that codes for the intracellular tyrosine kinase domain; made in house; host or cells: SF9 insect cells (baculovirus)
T1 sequence (P11362 478-767 limits assumed): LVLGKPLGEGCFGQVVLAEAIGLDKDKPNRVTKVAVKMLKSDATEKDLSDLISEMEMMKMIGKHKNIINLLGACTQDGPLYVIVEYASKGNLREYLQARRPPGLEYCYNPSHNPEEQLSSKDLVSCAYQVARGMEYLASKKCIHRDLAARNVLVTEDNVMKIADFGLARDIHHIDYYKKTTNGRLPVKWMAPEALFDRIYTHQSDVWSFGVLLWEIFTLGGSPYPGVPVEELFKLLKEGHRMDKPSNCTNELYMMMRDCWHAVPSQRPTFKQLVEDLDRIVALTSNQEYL
Source text: (§1) Full length cDNAs for the mouse PDGF-β and human FGF-1 (flg) receptor tyrosine kinases were obtained from J. Escobedo and prepared as described in J. Biol. Chem., 262:1482-1487 […], and PCR primers were designed to amplify a fragment of DNA that codes for the intracellular tyrosine kinase domain. The fragment was melded into a baculovirus vector, cotransfected with AcMNPV DNA, and the recombinant virus isolated. SF9 insect cells were infected with the virus to overexpress the protein, and the cell lysate was used for the assay. The assay was performed in 96-well plates (100 µL/incubation/well), and conditions were optimized to measure the incorporation of ^32P from γ^32P-ATP into a glutamate-tyrosine co-polymer substrate. Briefly, to each well was added 82.5 µL of incubation buffer containing 25 mM Hepes (pH 7.0), 150 mM NaCl, 0.1% Triton X-100, 0.2 mM PMSF, 0.2 mM Na3VO4, 10 mM MnCl2, and 750 µg/mL of Poly (4:1) glutamate-tyrosine followed by 2.5 µL of inhibitor and 5µL of enzyme lysate (7.5 µg/µL FGF-TK or 6.0 µg/µL PDGF-TK) to initiate the reaction. Following a 10 minute incubation at 25°C, 10 µL of γ^32P-ATP (0.4 µCi plus 50 µM ATP) was added to each well and samples were incubated for an additional 10 minutes at 25°C. The reaction was terminated by the addition of 100 µL of 30% trichloroacetic acid (TCA) containing 20 mM sodium pyrophosphate and precipitation of material onto glass fiber filter mats (Wallac). […] Nonspecific activity was defined as radioactivity retained on the filters following incubation of samples with buffer alone (no enzyme). Specific enzymatic activity was defined as total activity (enzyme plus buffer) minus nonspecific activity.

[2] = molecular target: T2, Human EGF receptor tyrosine kinase (Homo sapiens, UniProt P00533); experiment: EGF receptor tyrosine kinase enzyme assay (substrate peptide phosphorylation); settings: for inhibition at 50 µM: read-out: EGF-FL % Inhibition at 50 µM; for IC50: read-out: EGF-FL IC50
T2 construct: Human EGF receptor tyrosine kinase was isolated from A431 epidermoid carcinoma cells; endogenous in cells; host or cells: A431 epidermoid carcinoma cells
T2 sequence (P00533 25-1210): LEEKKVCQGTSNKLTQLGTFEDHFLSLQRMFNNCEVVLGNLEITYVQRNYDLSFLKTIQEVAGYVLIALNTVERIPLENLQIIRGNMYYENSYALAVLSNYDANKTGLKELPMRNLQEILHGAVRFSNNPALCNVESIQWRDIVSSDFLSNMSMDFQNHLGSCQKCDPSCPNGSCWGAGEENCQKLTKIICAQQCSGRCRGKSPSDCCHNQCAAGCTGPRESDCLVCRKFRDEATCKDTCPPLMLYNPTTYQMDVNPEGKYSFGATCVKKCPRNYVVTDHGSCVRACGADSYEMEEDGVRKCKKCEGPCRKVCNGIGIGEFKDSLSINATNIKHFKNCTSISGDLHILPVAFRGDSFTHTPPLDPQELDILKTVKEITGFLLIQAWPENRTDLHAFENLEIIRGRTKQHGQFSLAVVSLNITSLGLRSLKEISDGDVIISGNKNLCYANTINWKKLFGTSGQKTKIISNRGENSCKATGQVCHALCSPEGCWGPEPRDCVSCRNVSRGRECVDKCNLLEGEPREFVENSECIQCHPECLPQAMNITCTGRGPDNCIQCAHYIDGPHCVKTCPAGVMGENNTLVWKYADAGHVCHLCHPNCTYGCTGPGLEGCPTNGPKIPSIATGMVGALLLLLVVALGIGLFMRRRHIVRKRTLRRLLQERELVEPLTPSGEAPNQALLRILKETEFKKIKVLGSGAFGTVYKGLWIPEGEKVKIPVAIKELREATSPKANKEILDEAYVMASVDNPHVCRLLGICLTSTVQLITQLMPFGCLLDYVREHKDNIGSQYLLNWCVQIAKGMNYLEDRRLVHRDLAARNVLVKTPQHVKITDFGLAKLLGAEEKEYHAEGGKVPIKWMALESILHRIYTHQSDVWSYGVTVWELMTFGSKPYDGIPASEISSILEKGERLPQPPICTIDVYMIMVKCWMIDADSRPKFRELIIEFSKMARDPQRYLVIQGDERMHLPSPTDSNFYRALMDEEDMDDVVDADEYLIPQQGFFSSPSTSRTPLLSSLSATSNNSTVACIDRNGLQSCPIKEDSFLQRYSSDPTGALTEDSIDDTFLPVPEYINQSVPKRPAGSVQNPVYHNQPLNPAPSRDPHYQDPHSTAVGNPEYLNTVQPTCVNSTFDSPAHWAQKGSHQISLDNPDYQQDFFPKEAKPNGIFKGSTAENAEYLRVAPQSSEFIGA
Procedure: Human EGF receptor tyrosine kinase was isolated from A431 epidermoid carcinoma cells by the following methods. Cells were grown in roller bottles in 50% Dulbecco's Modified Eagle medium and 50% HAM F-12 nutrient media (Gibco) containing 10% fetal calf serum. Approximately 10^9 cells were lysed in two volumes of buffer containing 20 mM 2-(4N-[2-hydroxymethyl]-piperazin-1-yl)ethanesulfonic acid, pH 7.4, 5 mM ethylene glycol bis(2-aminoethyl ether) N,N,N',N'-tetraacetic acid, 1% Triton X-100, 10% glycerol, 0.1 mM sodium orthovanadate, 5 mM sodium fluoride, 4 mM pyrophosphate, 4 mM benzamide, 1 mM dithiothreitol, 80 µg/mL aprotinin, 40 µg/mL leupeptin, and 1 mM phenylmethylsulfonyl fluoride. […] Contaminating proteins were washed from the resin with 1 M NaCl in equilibration buffer, and the enzyme was eluted with 0.5 M N-acetyl-1-D-glucosamine in equilibration buffer.
The reaction was terminated by the addition of 2 mL of 75 mM phosphoric acid and passed through a 2.5-cm phosphocellulose filter disc to bind the peptide. The filter was washed 5 times with 75 mM phosphoric acid and placed in a vial along with 5 mL of scintillation fluid (Ready gel Heckman).

[3] = molecular target: T3, mouse PDGF-β receptor tyrosine kinase (Mus musculus, UniProt P05622); experiment: PDGF receptor tyrosine kinase assay (32P incorporation into glutamate-tyrosine co-polymer); settings: for IC50: read-out: PDGFr-TK IC50; for inhibition at 50 µM: read-out: PDGFr-TK % Inhibition at 50 µM
T3 construct: amplify a fragment of DNA that codes for the intracellular tyrosine kinase domain; made in house; host or cells: SF9 insect cells (baculovirus)
T3 sequence (P05622 599-961 limits assumed): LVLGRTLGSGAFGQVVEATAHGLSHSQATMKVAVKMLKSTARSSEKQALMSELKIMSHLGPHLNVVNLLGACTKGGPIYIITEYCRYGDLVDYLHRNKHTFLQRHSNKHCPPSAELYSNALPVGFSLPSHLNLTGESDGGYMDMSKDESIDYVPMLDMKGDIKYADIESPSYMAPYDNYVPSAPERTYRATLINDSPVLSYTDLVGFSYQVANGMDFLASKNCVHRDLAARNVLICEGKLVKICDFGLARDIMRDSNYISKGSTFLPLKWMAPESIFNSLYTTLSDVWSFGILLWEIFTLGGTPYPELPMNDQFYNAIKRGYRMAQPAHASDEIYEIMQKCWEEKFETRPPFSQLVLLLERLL
Source text: as §1

[4] = molecular target: T4, C-src kinase (Homo sapiens, UniProt P12931); experiment: C-src kinase assay (poly GluTyr substrate); settings: for IC50: read-out: C-src TK IC50; for inhibition at 50 µM: read-out: C-src TK % Inhibition at 50 µM
T4 construct: made in house; host or cells: baculovirus infected insect cells
T4 sequence (P12931 whole entry): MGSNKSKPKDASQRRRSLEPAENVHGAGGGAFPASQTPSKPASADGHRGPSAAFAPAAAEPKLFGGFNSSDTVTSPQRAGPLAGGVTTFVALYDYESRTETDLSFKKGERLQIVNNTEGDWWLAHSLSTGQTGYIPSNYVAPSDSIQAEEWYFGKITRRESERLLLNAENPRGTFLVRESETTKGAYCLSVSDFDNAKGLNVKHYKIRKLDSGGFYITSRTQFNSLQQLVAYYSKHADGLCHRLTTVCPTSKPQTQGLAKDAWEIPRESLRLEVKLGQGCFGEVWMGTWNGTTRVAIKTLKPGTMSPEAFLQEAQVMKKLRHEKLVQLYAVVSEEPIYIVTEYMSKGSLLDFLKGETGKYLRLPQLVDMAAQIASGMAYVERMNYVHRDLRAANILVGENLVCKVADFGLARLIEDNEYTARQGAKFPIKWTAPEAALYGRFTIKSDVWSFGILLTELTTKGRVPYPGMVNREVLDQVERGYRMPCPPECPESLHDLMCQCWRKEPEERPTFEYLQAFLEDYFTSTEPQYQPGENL
Procedure: V-src or C-src kinase is purified from baculovirus infected insect cell lysates using an antipeptide monoclonal antibody directed against the N-terminal 2-17 amino acids. The antibody, covalently linked to 0.65-µm latex beads, is added to a suspension of insect cell lysis buffer comprised of 150 mM NaCl, 50 mM Tris pH 7.5, 1 mM DTT, 1% NP-40, 2 mM EGTA, 1 mM sodium vanadate, 1 mM PMSF, 1 µg/mL each of leupeptin, pepstatin, and aprotinin. […] At the end of the lysate incubation, the beads are rinsed 3 times in lysis buffer, resuspended in lysis buffer containing 10% glycerol, and frozen. These latex beads are thawed, rinsed 3 times in assay buffer which is comprised of 40 mM tris pH 7.5, 5 mM MgCl2, and suspended in the same buffer. In a Millipore 96-well plate with a 0.65 µm polyvinylidine membrane bottom are added the reaction components: 10-µL V-src or C-src beads, 10 µL of 2.5 mg/mL poly GluTyr substrate, 5 µM ATP containing 0.2 µCi labeled ^32P-ATP, 5µL DMSO containing inhibitors or as a solvent control, and buffer to make the final volume 125 µL. The reaction is started at room temperature by addition of the ATP and quenched 10 minutes later by the addition of 125 µL of 30% TCA, 0.1 M sodium pyrophosphate for 5 minutes on ice. […] The filters are punched, counted in a liquid scintillation counter, and the data examined for inhibitory activity in comparison to a known inhibitor such as erbstatin.

Compound	IC50 ([1]; read-out: FGFr-TK IC50) [µM]	inhibition at 50 µM [2] [%]	IC50 [3] [µM]	IC50 [4] [µM]	inhibition at 50 µM [4] [%]	other results
Cc1ccccc1-c1cc2cnc(N)nc2n(C)c1=O [Example 14, 2-Amino-6-(2-methylphenyl)-8-methyl-pyrido[2,3-d]-pyrimidin-7(8H)-one]	7.65	65	1.41	3.92		
Cn1c(=O)c(-c2c(Cl)cccc2Cl)cc2cnc(NCCCN3CCOCC3)nc21 [Example 47, 6-(2,6-Dichlorophenyl)-8-methyl-2-(3-morpholin-4-yl-propylamino)-8H-pyrido[2,3-d]pyrimidin-7-one]		70	5.98		36	
Cn1c(=O)c(-c2c(Cl)cccc2Cl)cc2cnc(NC3CCCCC3)nc21 [Example 60, 2-Cyclohexylamino-6-(2,6-dichlorophenyl)-8-methyl-8H-pyrido[2,3-d]pyrimidin-7-one]	6.52		9.38	1.64		
Cn1c(=O)c(-c2c(Cl)cccc2Cl)cc2cnc(NCCCCCC(=O)OC(C)(C)C)nc21 [Example 61, 6-[6-(2,6-Dichlorophenyl)-8-methyl-7-oxo-7,8-dihydro-pyrido[2,3-d]pyrimidin-2-ylamino]-hexanoic acid, tert-butyl ester]	8.6		26.5		64	
COc1ccc(Nc2ncc3cc(-c4c(Cl)cccc4Cl)c(=O)n(C)c3n2)cc1 [Example 64, 6-(2,6-Dichlorophenyl)-2-(4-methoxyphenylamino)-8-methyl-8H-pyrido[2,3-d]pyrimidin-7-one]	0.403		0.546			IC50 [2]: 0.065 µM
COc1cccc(Nc2ncc3cc(-c4c(Cl)cccc4Cl)c(=O)n(C)c3n2)c1 [Example 72, 6-(2,6-Dichlorophenyl)-2-(3-methoxyphenylamino)-8-methyl-8H-pyrido[2,3-d]pyrimidin-7-one]				0.052		IC50 [2]: 0.033 µM
CN1CCN(CCCCCNc2ncc3cc(-c4c(Cl)cccc4Cl)c(=O)n(C)c3n2)CC1 [Example 81, 6-(2,6-Dichlorophenyl)-8-methyl-2-[5-(4-methylpiperazin-1-yl)-pentylamino]-8H-pyrido[2,3-d]pyrimdin-7-one]			0.743		94	IC50 [2]: 4.5 µM
Cn1c(=O)c(-c2c(Cl)cccc2Cl)cc2cnc(Nc3cccc(O)c3)nc21 [Example 87, 6-(2,6-Dichlorophenyl)-2-(3-hydroxyphenylamino)-8-methyl-8H-pyrido[2,3-d]pyrimidin-7-one]			0.35			IC50 [2]: 0.14 µM
CCOC(=O)c1ccc(Nc2ncc3cc(-c4c(Cl)cccc4Cl)c(=O)n(C)c3n2)cc1 [Example 88, 4-[6-(2,6-Dichlorophenyl)-8-methyl-7-oxo-7,8-dihydro-pyrido[2,3-d]pyrimidin-2-ylamino]-benzoic acid, ethyl ester]	69		38	0.095		
CCOC(=O)c1cccc(Nc2ncc3cc(-c4c(Cl)cccc4Cl)c(=O)n(C)c3n2)c1 [Example 89, 3-[6-(2,6-Dichlorophenyl)-8-methyl-7-oxo-7,8-dihydro-pyrido[2,3-d]pyrimidin-2-ylamino]-benzoic acid, ethyl ester]	1.49		1.48	0.014		
Nc1ncc2cc(-c3c(Cl)cccc3Cl)c(=O)n(Cc3ccncc3)c2n1 [Example 113, 2-Amino-6-(2,6-dichlorophenyl)-8-pyridin-4-ylmethyl-8H-pyrido[2,3-d]pyrimidin-7-one]			1.76		87	IC50 [2]: 6.7 µM
CCn1c(=O)c(-c2cc(C)cc(C)c2)cc2cnc(Nc3ccccc3)nc21 [Example 118, 6-(3,5-Dimethylphenyl)-8-ethyl-2-phenylamino-8H-pyrido[2,3-d]pyrimidin-7-one]					0	inhibition at 50 µM [1]: 29%; inhibition at 50 µM [3]: 12%
CCn1c(=O)c(-c2ccncc2)cc2cnc(Nc3ccccc3)nc21 [Example 120, 8-Ethyl-2-phenylamino-6-pyridin-4-yl-8H-pyrido[2,3-d]-pyriminin-7-one]			1.83		29	inhibition at 50 µM [1]: 2%
CCn1c(=O)c(-c2ccc(-c3ccccc3)cc2)cc2cnc(Nc3ccccc3)nc21 [Example 124, 6-Biphenyl-4-yl-8-ethyl-2-phenylamino-8H-pyrido[2,3-d]-pyrimidin-7-one]					11	inhibition at 50 µM [1]: 15%; inhibition at 50 µM [3]: 38%

Continued, in another order:

IC50 ([1]; read-out: FGFr-TK IC50) [µM]	inhibition at 50 µM [2] [%]	IC50 [3] [µM]	IC50 [4] [µM]	inhibition at 50 µM [4] [%]	Compound	other results
6.2	88	2.56	0.29		Cc1cccc(C)c1-c1cc2cnc(N)nc2n(C)c1=O [Example 13, 2-Amino-6-(2,6-dimethylphenyl)-8-methyl-pyrido[2,3-d]-pyrimidin-7(8H)-one]	
	77	0.98	0.155		CCn1c(=O)c(-c2c(Cl)cccc2Cl)cc2cnc(N)nc21 [Example 30, 2-Amino-6-(2,6-dichlorophenyl)-8-ethyl-pyrido[2,3-d]-pyrimidin-7(8H)-one]	
0.46	100	1.2		100	CCCn1c(=O)c(-c2c(Cl)cccc2Cl)cc2cnc(N)nc21 [Example 31, 2-Amino-6-(2,6-dichlorophenyl)-8-propyl-8H-pyrido[2,3-d]pyrimidin-7-one]	
0.737	100	0.875		33	CCCCn1c(=O)c(-c2c(Cl)cccc2Cl)cc2cnc(N)nc21 [Example 32, 2-Amino-8-butyl-6-(2,6-dichlorophenyl)-8H-pyrido[2,3-d]pyrimidin-7-one]	
0.426	95	1.84	0.89		CC(C)Cn1c(=O)c(-c2c(Cl)cccc2Cl)cc2cnc(N)nc21 [Example 33, 2-Amino-6-(2,6-dichlorophenyl)-8-isobutyl-8H-pyrido[2,3-d]pyrimidin-7-one]	
			0.044		Cn1c(=O)c(-c2c(Cl)cccc2Cl)cc2cnc(Nc3cccnc3)nc21 [Example 79, 6-(2,6-Dichlorophenyl)-8-methyl-2-(pyridin-3-ylamino)-8H-pyrido[2,3-d]pyrimidin-7-one]	IC50 [1]: 0.172 µM; IC50 [2]: 0.11 µM
9.24				52	Nc1ncc2cc(-c3c(Cl)cccc3Cl)c(=O)n(CC(=O)O)c2n1 [Example 107, [2-Amino-6-(2,6-dichlorophenyl)-7-oxo-7H-pyrido[2,3-d]-pyrimidin-8-yl]-acetic acid]	inhibition at 50 µM [3]: 43%
